Results from patent publication US20230331710A1, “HETEROCYCLIC COMPOUND, PREPARATION METHOD AND USE THEREOF” (SHANGHAI MEIYUE BIOTECH DEVELOPMENT CO. LTD, priority 2020, published 2023).

target: T1, complement factor B (Homo sapiens, UniProt P00751); test: Complement hemolytic activity assay (lysis of rabbit erythrocytes by normal human serum); type: cell-based; settings: normal human serum in GVB0 buffer with 10 mM Mg-EGTA, 37° C., A415
T1 construct: from tissue; host or cells: normal human serum from healthy volunteers
T1 sequence (P00751 26-764): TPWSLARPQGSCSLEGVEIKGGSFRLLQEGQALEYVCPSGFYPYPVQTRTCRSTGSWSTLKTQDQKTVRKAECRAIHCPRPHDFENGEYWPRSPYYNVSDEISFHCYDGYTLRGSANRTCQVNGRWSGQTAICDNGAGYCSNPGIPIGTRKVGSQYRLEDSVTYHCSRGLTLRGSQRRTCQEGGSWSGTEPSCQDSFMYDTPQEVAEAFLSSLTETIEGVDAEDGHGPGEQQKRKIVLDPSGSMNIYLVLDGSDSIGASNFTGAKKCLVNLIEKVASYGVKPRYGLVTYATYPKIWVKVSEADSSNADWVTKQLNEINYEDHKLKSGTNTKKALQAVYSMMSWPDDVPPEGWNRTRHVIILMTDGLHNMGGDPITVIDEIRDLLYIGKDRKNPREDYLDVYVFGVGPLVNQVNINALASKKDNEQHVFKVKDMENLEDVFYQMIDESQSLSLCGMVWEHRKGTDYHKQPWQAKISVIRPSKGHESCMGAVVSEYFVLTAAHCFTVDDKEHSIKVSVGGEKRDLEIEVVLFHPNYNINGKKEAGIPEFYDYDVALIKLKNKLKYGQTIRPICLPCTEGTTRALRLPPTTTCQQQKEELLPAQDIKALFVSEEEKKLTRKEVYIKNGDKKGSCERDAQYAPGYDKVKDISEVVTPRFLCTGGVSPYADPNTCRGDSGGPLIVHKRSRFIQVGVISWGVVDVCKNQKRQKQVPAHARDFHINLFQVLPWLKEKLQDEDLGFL
Description: 4. Complement Hemolytic Activity Assay
The hemolysis experiment was carried out by referring to the description in Xuan Yuan et al., Haematologica. […] Prior to the experiment, the optimal concentration of normal human serum (NHS) required to achieve 100% lysis of rabbit erythrocytes (REs) was obtained by titration testing. […] A GVB0 buffer containing 10 mM Mg-EGTA and containing NHS and RE but no test compound was used as a positive control group (100% lysis). A GVB0 buffer containing 10 mM Mg-EGTA and containing inactivated NHS (heated at 56° C. for 30 min or at 65° C. for 5 min) and RE but no test compound was used as a negative control group (0% lysis). The samples were centrifuged at 2000 g for 5 min, and the supernatant was collected. Absorbance at 415 nm (A415) was measured using a microplate reader (Molecular Devices, SpectraMax i3X). IC50 values were calculated from percent hemolysis as a function of test compound concentration by non-linear regression.

Question: `CCO[C@H]1CCN(Cc2c(OC)cc(C)c3c2CCC3)[C@H](c2ccc(C(=O)O)cc2)C1` [Example 8] was tested. Which IC50 did it give?
Answer: The IC50 was over 5000 nM.

Question: For `CCO[C@H]1CCN(Cc2c(OC)cc(C)c3[nH]nnc23)[C@H](c2ccc(C(=O)O)cc2)C1` [Example 6], which IC50 is on record?
Answer: The IC50 was over 5000 nM.

Question: How did the IC50 turn out when `CCO[C@H]1CCN(Cc2c(OC)cc(C)c3[nH]ncc23)[C@H](c2ccc(C(=O)O)cc2)C1` [Example 5] was run?
Answer: Its IC50 is 1200 nM.

Question: Which IC50 does the source give for `CCO[C@H]1CCN(Cc2c(OC)cc(C#N)c3[nH]ccc23)[C@H](c2ccc(C(=O)O)cc2)C1` [Example 12] here?
Answer: The IC50 was over 5000 nM.

Question: Which IC50 does the source give for `CCO[C@H]1CCN(Cc2c(OC)cc(C)c3c2CCN3)[C@H](c2ccc(C(=O)O)cc2)C1` [Example 1] here?
Answer: Its IC50 is 1500 nM.

Question: With `CCO[C@H]1CCN(Cc2c(C)cc(C)c3ccccc23)[C@H](c2ccc(C(=O)O)cc2)C1` [Example 15] as the compound, how does the IC50 read?
Answer: The IC50 was over 5000 nM.

Question: How did the IC50 turn out when `CCO[C@H]1CCN(Cc2c(OC)cc(C)c3[nH]cnc23)[C@H](c2ccc(C(=O)O)cc2)C1` [Example 4] was run?
Answer: The IC50 was 900 nM.

Question: `CCO[C@H]1CCN(Cc2c(OC)cc(C)c3c2CCC(=O)N3)[C@H](c2ccc(C(=O)O)cc2)C1` [Example 16] was tested. Which IC50 did it give?
Answer: The IC50 was over 5000 nM.

Question: `CCO[C@H]1CCN(Cc2c(OC)cc(C)c3occc23)[C@H](c2ccc(C(=O)O)cc2)C1` [Example 10] was tested. Which IC50 did it give?
Answer: The IC50 was 1300 nM.

Question: For `CCO[C@H]1CCN(Cc2c(OC)cc(C3CC3)c3[nH]ccc23)[C@H](c2ccc(C(=O)O)cc2)C1` [Example 13], which IC50 is on record?
Answer: Its IC50 is 1000 nM.

Question: Which IC50 does the source give for `CCO[C@H]1CCN(Cc2c(OC)cc(C)c3ccccc23)[C@H](c2ccc(C(=O)O)cc2)C1` [Example 14] here?
Answer: Its IC50 is over 5000 nM.

Question: For `CCO[C@H]1CCN(Cc2c(OC)cc(C(F)(F)F)c3[nH]ccc23)[C@H](c2ccc(C(=O)O)cc2)C1` [Example 11], which IC50 is on record?
Answer: Its IC50 is over 5000 nM.
